Test results reported in US7288567B2, “Inhibitors of histone deacetylase” (Methylgene Inc., priority 2000, dated 2007).
Where two headings read alike, the source gives them in different places.

Experiments:
[1] = tested on: histone deacetylase enzyme in nuclear extracts from H446 cells (pooled HDACs); experiment: Histone deacetylase inhibition, H446 nuclear extracts (pooled HDACs); type: biochemical, human; settings: for pooled HDACs percent inhibition: percent inhibition at 20 μM (footnote); for IC50: H446 nuclear extract, [3H]-acetylated histone substrate
Summary of the method: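 Nuclear extract (30 μg) of human small cell lung cancer H446 cells, preincubated with compound 30 min at 4° C, then reacted 10 min at 37° C with [3H]-acetylated histone substrate (20,000 cpm). Released [3H]-acetic acid extracted with ethyl acetate and counted; IC50 as concentration giving half-maximal inhibition from dose-response curves.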

[2] = molecular target: T1, recombinant human HDAC-1 enzyme (rHDAC-1) (Homo sapiens, UniProt Q13547); experiment: Histone deacetylase inhibition, recombinant human HDAC-1; type: biochemical; settings: cloned recombinant human HDAC-1, Baculovirus insect cell expression; read-out: rHDAC-1 IC50
T1 construct: made in house; host or cells: Baculovirus insect cell expression system
Summary of the method: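 Recombinant human HDAC-1 or pooled HDACs from H446 nuclear extracts were preincubated with compounds for 30 min at 4 °C before the reaction. Released [3H]-acetic acid was extracted with ethyl acetate after acid stop and counted by scintillation. IC50 was the concentration giving half-maximal inhibition from dose-response curves.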

[3] = tested on: acetylated histone H-4 in T24 human bladder cancer cells; experiment: Histone H4 acetylation in whole cells by immunoblots; type: cell-based
Method: T24 human bladder cancer cells growing in culture were incubated with HDAC inhibitors for 16 hours. Histones were extracted from the cells after the culture period as described by M. Yoshida et al. (J. Biol. Chem. 265(28): 17174-17179 (1990)). 20 μg of total histone protein was loaded onto SDS/PAGE and transferred to nitrocellulose membranes. Membranes were probed with polyclonal antibodies specific for acetylated histone H-4 (Upstate Biotech Inc.), followed by horse radish peroxidase conjugated secondary antibodies (Sigma). Enhanced Chemiluminescence (ECL) (Amersham) detection was performed using Kodak films (Eastman Kodak). Acetylated H-4 signal was quantified by densitometry.

cell growth = settings: Finnin et al. 1999; cited from earlier work
tumors = settings: Finnin et al. 1999; cited from earlier work
HDAC = settings: Richon et al. 1998; cited from earlier work
[4] = tested on: A549 human lung carcinoma cells; experiment: Antineoplastic effect on A549 tumors in nude mice; type: in vivo, BALB/c nude mice; settings: A549 xenograft, daily injection about 10 to about 50 mg/kg, 21 days
Method: Eight to ten week old female BALB/c nude mice (Taconic Labs, Great Barrington, N.Y.) were injected subcutaneously in the flank area with 2×10^6 preconditioned A549 human lung carcinoma cells. Preconditioning of these cells was accomplished by a minimum of three consecutive tumor transplantations in the same strain of nude mice. Subsequently, tumor fragments of approximately 30 mgs were excised and implanted subcutaneously in mice, in the left flank area, under isoflurane anesthesia (Abbott Labs, Geneva, Switzerland). When the tumors reached a mean volume of 100 mm^3, the mice were treated intravenously, subcutaneously or intraperitoneally, by daily injection of a solution of the inhibitor in an appropriate vehicle such as PBS, DMSO/water, or Tween 80/water, at a dose from about 10 mg/kg to about 50 mg/kg, for 21 days. Tumor volume was calculated every second day post infusion according to standard methods (e.g., Meyer et al., Int. J. Cancer 43: 851-856 (1989)).

rat fibroblasts = settings: Yoshida and Beppu 1988; cited from earlier work
[5] = T-24, read-out: EC50, concentration effective for reducing the acetylated H-4 signal by 50%, T24 cells, 16 hours incubation, immunoblot densitometry

T1 sequence (Q13547 whole entry): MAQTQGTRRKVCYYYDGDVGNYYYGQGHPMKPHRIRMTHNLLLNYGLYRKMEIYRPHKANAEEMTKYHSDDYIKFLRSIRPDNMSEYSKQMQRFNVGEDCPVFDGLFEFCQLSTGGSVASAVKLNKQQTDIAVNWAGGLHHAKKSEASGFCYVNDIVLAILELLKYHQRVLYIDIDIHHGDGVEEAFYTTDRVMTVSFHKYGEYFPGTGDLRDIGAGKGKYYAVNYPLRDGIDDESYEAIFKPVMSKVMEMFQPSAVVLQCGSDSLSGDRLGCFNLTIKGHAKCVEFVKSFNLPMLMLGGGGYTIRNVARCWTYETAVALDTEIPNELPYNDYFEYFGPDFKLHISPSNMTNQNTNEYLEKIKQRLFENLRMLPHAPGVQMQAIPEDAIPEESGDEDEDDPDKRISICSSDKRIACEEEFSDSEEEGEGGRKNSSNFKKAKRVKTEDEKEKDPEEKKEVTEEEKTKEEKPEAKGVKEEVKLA

Structure (SMILES) | IC50 [2] [µM] | EC50 [3, 5] [µM] | IC50 [1] [µM] | also measured
COc1ccc(-c2ccc(C(=O)CCCCCCC(=O)NO)cc2)cc1 [Compound 120, N-Hydroxy-7-[4-(4-methoxyphenyl)benzoyl]heptanamide] | 0.002 | 10 |  | pooled HDACs percent inhibition [1]: 83%
O=C(CCCCCCC(=O)c1ccc(-c2ccccc2)nc1)NO [Compound 145, N-Hydroxy-7-[(5-(2-phenyl)pyridyl)carbonyl]heptanamide] | 0.008 | 10 |  | 
Nc1ccccc1NC(=O)CCCCCCC(=O)c1ccc(-c2ccccc2)nc1 [Compound 146, N-(2-Aminophenyl)-7-[(5-(2-phenyl)pyridyl)carbonyl]heptanamide] | 2 | 5 |  | 
O=C(CCCCCCC(=O)Nc1ccccc1)NO [SAHA, suberoylanilide hydroxamic acid] |  |  |  | cell growth (cell growth): inhibit cell growth; terminal differentiation (cell growth): induce terminal differentiation; formation of tumors in mice (tumors): prevent the formation of tumors in mice; HDAC activity (HDAC): inhibited
Nc1ccccc1NC(=O)/C=C/C=C/CCC(=O)c1ccc(-c2ccccc2)cc1 [Compound 204, (E,E)-N-(2-Aminophenyl)-7-[(4-biphenyl)carbonyl]-2,4-heptadienamide] | 5 | 15 |  | 
CC(/C=C/C(=O)Nc1ccccc1N)=C\C(C)C(=O)c1ccc(N(C)C)cc1 (stereo not drawn) [Compound 35, N-(2-Aminophenyl)-4-methyl-6-[4-(N,N-dimethylamino)benzoyl]-2,4-heptadienamide] | 2 | 5 | > 100 | 
COC(c1ccc(N(C)C)cc1)C(C)/C=C(C)/C=C/C(=O)Nc1ccccc1N (stereo not drawn) [Compound 34, N-(2-Aminophenyl)-4,6-dimethyl-7-methoxy-7-[4-(N,N-dimethylamino)phenyl]-2,4-heptadienamide] | 7 | 5 | > 100 | tumor weight and volume relative to saline controls [4]: significant reduction in tumor weight and volume
O=C(/C=C/C=C/CCC(=O)c1ccc(-c2ccccc2)cc1)NO [Compound 205, (E,E)-N-Hydroxy-7-[(4-biphenyl)carbonyl]-2,4-heptadienamide] | 0.04 | 3 |  | 
CC(/C=C/C(=O)Nc1ccccc1N)=C\C(C)Cc1ccc(N(C)C)cc1 (stereo not drawn) [Compound 39] | 7 | 10 | > 20 | 
CC(/C=C/C(=O)NO)=C\[C@@H](C)C(=O)c1ccc(N(C)C)cc1 [TSA, trichostatin A] |  |  |  | cell cycle arrest (rat fibroblasts): causes arrest of rat fibroblasts at the G1 and G2 phases of the cell cycle; cell growth (cell growth): inhibit cell growth; terminal differentiation (cell growth): induce terminal differentiation; formation of tumors in mice (tumors): prevent the formation of tumors in mice; HDAC activity (HDAC): inhibited
Nc1ccccc1NC(=O)CCCCCCC(=O)c1ccc(-c2ccccc2)cc1 [Compound 77, N-(2-Aminophenyl)-7-[(4-biphenyl)carbonyl]heptanamide] | 1.9 | 10 |  | pooled HDACs percent inhibition [1]: 11%
COC(C/C=C/C=C/C(=O)Nc1ccccc1N)c1ccc(N(C)C)cc1 (stereo not drawn) [Compound 20, N-(2-Aminophenyl)-7-methoxy-7-[4-(N,N-dimethylamino)phenyl]-2,4-heptadienamide] | 3 | 5 | > 20 | 
O=C(CCCCCCOc1ccc(-c2ccccc2)cc1)NO [Compound 235, N-Hydroxy-7-(4-biphenyloxy)heptanamide] |  |  |  | EC50 ([3]; T-24, 16 h, read-out: EC50, concentration effective for reducing the acetylated H-4 signal by 50%): 5 µM
COc1ccc(-c2ccc(C(=O)CCCCCCC(=O)Nc3ccccc3N)cn2)cc1OC [Compound 151, N-(2-Aminophenyl)-7-[5-(2-(3,4-dimethoxyphenyl)pyridyl)carbonyl]heptanamide] | 4 | 3 |  | 
Cc1ccc2c(c1)C(=O)N(CCCCCC(=O)Nc1ccccc1N)C2=O [Compound 243d, N-(2-Aminophenyl)-6-(5-methyl-N-phthaloyl)hexanamide] | 3 | 3 |  | 
COc1ccc(C(C/C=C/C=C/C(=O)Nc2ccccc2N)OC)cc1 (stereo not drawn) [Compound 18, N-(2-Aminophenyl)-7-methoxy-7-(4-methoxyphenyl)-2,4-heptadienamide] | 1 | 10 | > 100 | 
O=C(CCCCCCC(=O)c1ccc(N2CCN(c3ccccc3)CC2)cc1)NO [Compound 138g, N-Hydroxy-7-[4-(1-(4-phenylpiperazinyl))benzoyl]heptanamide] | 0.006 | 5 | 0.051 | 
Nc1ccccc1NC(=O)CCCCCN1C(=O)c2cccc3c(CN4CCCCC4)c(O)cc(c23)C1=O [Compound 251c, N-(2-Aminophenyl)-6-[2-(5-hydroxy-1,3-dioxo-6-(1-methylpiperidynyl)-1H,3H-benzo[de]isoquinolinyl)]-hexanamide] | 2 | 1 |  | 
Nc1ccccc1NC(=O)CCCCCCC(=NO)c1cccc(-c2ccccc2)c1 (mixture of isomers) [Compound 134, N-(2-Aminophenyl)-8-(E)-oximino-8-(3-biphenyl)octanamide] | 1 | 10 |  | 
